The test system of this assay is adalimumab producing cell line 2. As to the kind of experiment: Extracellular MGO measurement in cell culture supernatant, cell line 2. Type of assay: cell-based. The note with it: Example 4; for MGO concentration level: 0.15 g/l 2DDG. As for the experimental part:
About 20 ml of cell free supernatant were collected in some cases for measurement of extracellular MGO in the supernatant. For this, a 3,000 RPM 30 min centrifugation was performed to remove the cells.
Remove protein: After quick thawing covered with aluminum, cell culture samples (10 mL) were filtrated by a 3 kDa or 10 kDa membrane filter (Millipore, UFC900369) until the solution left inside the filter was around 1 mL, the flow through that was used for MGO analysis.
Derivative MGO: 750 uL of flow through, 75 uL of 1 M NaH2PO4 buffer (pH 8), 50 mM 1,2 diaminobenzene (Aldrich P/N: P23938), and 600 uL of MilliQ water were mixed well and incubated at 60° C. for 3 hours. After cooling down and centrifuging at 10000 rpm for 3 minutes, the sample solution was ready to be injected.
External Standards to Quantitate MGO: external standards were used to quantitate MGO in cell culture. Based on the following table, the standard solutions were prepared. The standard solutions were incubated at 60° C. for 3 hours. After cooling down, the standard solutions were analyzed to get an external standard curve. The concentration of MGO in culture was calculated based on the external standard curve. (MGO: CMP Biomedicals, P/N: 155558; GO: Fisher Scientifics, P/N: S25698). 10 mM and 1 mM MGO were diluted from the MGO and 1000 uM and 10 uM GO were diluted from the GO. The diluent was water.
HPLC Method: A reverse phase HPLC method was used for MGO analysis. The parameters are listed in the method information table and gradient table below.
The measured concentration based on external quantitation multiplied by two is the final MGO concentration.
The objective of this experiment was to further evaluate the control of MGO synthesis/MGO protein modification through reduced glucose consumption in a different cell line, Cell line 2. There were two parts to this experiment. In one part, different levels of 2DDG were supplemented (0.05 g/l, 0.15 g/l) similar to the experimental design in Example 2. Prior to this experiment, a study was performed in shake flask culture to evaluate the dose effect of 2DDG on this cell line (data not shown). In the other part, different glucose profiles were maintained in the culture through the feedback control of glucose feed amounts. […] As described in Example 3, extracellular MGO quantification was performed for day 7, 8 and 9 for the samples below and percentage of acidic species were quantified using WCX-10 analysis post protein A of cell culture harvests.
The cells were grown to maximum viable cell densities (VCD) in the range of 10-12×10^6 cells/ml for the different conditions tested. […] Samples were then subsequently analyzed using Lys-C peptide mapping for quantification of MGO modification post protein A purification. […]

Molecules are shown by their SMILES.

Regarding `O=CC[C@@H](O)[C@H](O)[C@H](O)CO` [Test 2DDG, 2-Deoxy-D-Glucose], under “0.05 g/l 2DDG, versus control”, the MGO concentration profile result is reported as “No significant difference”. In addition, the MGO concentration level (day 7, control 28 μM) stood at 14 µM; the MGO concentration level (day 8, control 64 μM) is 16 µM; the MGO concentration level (day not printed (third value, after day 7 and day 8), control 157 μM (day 9)) was 20 µM.

The values above are taken from patent US20160115225A1, “Methods of Reducing Methylglyoxal (MGO) Modification of Recombinant Proteins in Cell Culture” (AbbVie Inc., priority 2014, published 2016).
